Measured values: patent US20240109865A1, “INDAZOLE COMPOUNDS AS KINASE INHIBITORS” (TYRA BIOSCIENCES, INC., priority 2020, published 2024)

Key:
Assay in all cases: Kinase assay, binding constants (Kd), kinase-tagged T7 phage, qPCR
FGFR1 = FGFR1 (Homo sapiens (Human), UniProt P11362)
Description: (§1) Kinase-tagged T7 phage strains were prepared in an E. coli host derived from the BL21 strain. E. coli were grown to log-phase and infected with T7 phage and incubated with shaking at 32° C. until lysis. The lysates were centrifuged and filtered to remove cell debris. Streptavidin-coated magnetic beads were treated with biotinylated small molecule ligands for 30 minutes at room temperature to generate affinity resins for kinase assays. The liganded beads were blocked with excess biotin and washed with blocking buffer SeaBlock (Pierce), […], 1 mM DTT to remove unbound ligand and to reduce non-specific binding.
(§2) Test compounds were prepared as 111λ stocks in 10000 DMS0. Kds were determined using an 11-point 3-fold compound dilution series with three DMSO control points. […] The compounds were then diluted directly into the assays such that the final concentration of DMSO was 0.9%. All reactions performed in polypropylene 384-well plate. Each was a final volume of 0.02 ml. […] The beads were then re-suspended in elution buffer (1×PBS, 0.05% Tween […] non-biotinylated affinity ligand) and incubated at room temperature with shaking for 30 minutes. The kinase concentration in the eluates was measured by qPCR.
(§3) Binding constants were calculated with a standard dose-response curve using the Hill equation: […]
(§4) The Hill Slope was set to −1. Curves were fitted using a non-linear least square fit with the Levenberg-Marquardt algorithm.

FGFR2 = FGFR2 (Homo sapiens (Human), UniProt P21802)
Sequence of FGFR2 (P21802 22-821): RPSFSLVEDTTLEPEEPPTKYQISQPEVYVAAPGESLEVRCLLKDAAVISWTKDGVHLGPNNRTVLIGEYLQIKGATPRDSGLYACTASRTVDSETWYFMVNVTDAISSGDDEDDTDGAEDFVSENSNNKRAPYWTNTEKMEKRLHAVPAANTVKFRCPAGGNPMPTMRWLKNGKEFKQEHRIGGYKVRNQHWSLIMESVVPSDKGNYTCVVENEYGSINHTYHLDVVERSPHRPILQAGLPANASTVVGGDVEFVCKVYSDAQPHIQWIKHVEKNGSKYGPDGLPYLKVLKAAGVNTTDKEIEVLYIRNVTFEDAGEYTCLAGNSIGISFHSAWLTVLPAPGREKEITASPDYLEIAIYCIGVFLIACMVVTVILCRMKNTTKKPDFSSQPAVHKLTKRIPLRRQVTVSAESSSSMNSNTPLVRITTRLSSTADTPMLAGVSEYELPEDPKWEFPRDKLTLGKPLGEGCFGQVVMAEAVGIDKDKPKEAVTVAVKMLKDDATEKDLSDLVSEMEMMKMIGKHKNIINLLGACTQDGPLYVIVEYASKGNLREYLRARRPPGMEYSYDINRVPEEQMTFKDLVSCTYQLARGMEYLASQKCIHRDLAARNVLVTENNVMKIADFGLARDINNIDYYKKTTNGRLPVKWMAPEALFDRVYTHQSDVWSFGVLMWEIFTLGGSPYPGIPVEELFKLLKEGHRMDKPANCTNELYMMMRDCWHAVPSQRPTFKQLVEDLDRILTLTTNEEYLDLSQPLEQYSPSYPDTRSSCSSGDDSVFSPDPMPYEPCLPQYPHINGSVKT
Description: as §1, §2, §3, §4

FGFR3 = FGFR3 (Homo sapiens (Human), UniProt P22607)
Sequence of FGFR3 (P22607 23-806): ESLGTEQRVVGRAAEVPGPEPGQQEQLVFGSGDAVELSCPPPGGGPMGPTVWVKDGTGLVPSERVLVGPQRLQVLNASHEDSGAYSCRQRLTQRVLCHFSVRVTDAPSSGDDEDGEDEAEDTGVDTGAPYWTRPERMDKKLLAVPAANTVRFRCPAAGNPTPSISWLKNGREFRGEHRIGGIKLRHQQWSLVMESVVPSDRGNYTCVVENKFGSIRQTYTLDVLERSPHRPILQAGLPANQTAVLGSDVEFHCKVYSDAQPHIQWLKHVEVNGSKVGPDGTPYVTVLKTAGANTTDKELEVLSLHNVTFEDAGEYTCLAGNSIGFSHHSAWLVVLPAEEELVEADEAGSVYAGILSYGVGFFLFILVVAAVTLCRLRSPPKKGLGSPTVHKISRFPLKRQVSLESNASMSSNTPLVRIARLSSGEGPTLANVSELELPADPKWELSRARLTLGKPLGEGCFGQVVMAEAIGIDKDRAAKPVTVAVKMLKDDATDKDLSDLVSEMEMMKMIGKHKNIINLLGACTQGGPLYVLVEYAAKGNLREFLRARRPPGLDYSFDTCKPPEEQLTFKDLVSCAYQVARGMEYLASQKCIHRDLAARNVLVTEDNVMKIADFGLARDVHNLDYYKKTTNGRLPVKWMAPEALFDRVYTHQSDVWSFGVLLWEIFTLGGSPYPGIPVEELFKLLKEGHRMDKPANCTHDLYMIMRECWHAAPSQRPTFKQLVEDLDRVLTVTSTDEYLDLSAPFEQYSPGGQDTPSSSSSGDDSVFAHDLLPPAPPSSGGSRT
Description: as §1, §2, §3, §4

FGFR3 (V555M) = FGFR3 (V555M) (Homo sapiens (Human), UniProt P22607, V555M); details: V555M mutant
Sequence of FGFR3 (V555M) (P22607 23-806 V555M): as the sequence (P22607 23-806) above, with V533M counted along it
Description: as §1, §2, §3, §4

FGFR4 = FGFR4 (Homo sapiens (Human), UniProt P22455)
Sequence of FGFR4 (P22455 22-802): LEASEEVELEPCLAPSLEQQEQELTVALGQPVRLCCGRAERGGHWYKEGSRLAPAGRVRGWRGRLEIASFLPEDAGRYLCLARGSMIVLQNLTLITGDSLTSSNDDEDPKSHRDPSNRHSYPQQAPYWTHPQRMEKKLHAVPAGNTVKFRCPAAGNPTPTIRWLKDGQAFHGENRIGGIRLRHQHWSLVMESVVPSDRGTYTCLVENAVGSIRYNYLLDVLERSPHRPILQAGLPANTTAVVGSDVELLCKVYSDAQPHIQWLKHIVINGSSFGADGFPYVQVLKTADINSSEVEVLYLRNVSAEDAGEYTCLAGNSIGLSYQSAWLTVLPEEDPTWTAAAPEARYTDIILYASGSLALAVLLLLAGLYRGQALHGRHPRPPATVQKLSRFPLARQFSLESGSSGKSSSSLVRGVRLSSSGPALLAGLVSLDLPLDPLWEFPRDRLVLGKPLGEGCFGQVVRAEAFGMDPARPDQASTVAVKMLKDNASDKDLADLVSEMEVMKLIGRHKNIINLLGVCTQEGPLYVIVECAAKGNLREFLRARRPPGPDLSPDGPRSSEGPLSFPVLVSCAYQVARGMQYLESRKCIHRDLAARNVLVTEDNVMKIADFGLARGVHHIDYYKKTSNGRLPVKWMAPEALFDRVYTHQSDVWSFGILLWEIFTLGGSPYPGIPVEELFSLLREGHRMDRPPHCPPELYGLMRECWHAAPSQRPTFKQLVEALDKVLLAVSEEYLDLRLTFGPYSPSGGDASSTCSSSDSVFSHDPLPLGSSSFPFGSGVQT
Description: as §1, §2, §3, §4

Sequence of FGFR1 (P11362 22-822): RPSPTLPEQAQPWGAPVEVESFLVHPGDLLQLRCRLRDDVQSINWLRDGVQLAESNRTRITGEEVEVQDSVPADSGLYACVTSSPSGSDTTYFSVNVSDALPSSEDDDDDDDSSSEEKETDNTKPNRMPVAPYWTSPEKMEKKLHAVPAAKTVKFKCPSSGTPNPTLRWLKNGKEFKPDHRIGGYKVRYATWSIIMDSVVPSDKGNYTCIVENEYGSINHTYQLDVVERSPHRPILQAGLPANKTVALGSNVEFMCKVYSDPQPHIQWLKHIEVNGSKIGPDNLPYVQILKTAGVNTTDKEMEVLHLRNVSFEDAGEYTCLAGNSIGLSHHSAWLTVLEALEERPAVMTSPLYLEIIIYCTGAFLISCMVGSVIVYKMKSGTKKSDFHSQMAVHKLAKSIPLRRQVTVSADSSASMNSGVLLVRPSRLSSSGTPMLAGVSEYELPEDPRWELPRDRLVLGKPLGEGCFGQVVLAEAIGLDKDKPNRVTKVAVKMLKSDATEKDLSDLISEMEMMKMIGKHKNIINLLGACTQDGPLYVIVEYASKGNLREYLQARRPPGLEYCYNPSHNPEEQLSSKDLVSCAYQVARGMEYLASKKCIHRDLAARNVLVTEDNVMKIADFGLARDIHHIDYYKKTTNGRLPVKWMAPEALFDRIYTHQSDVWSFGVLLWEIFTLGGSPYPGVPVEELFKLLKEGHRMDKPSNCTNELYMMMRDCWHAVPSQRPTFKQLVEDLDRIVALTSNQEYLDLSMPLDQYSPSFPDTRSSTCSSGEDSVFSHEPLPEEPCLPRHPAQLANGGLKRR

Structure (SMILES) | Kd (FGFR1) [nM] | Kd (FGFR2) [nM] | Kd (FGFR3) [nM] | Kd (FGFR3 (V555M)) [nM] | Kd (FGFR4) [nM]
C[C@@H](Oc1ccc2[nH]nc(-c3ccc(N4CC5(CCCNC5)C4)nc3)c2c1)c1c(Cl)cncc1Cl [Example 161, 3-[6-(2,8-diazaspiro[3.5]nonan-2-yl)-3-pyridyl]-5-[(1R)-1-(3,5-dichloro-4-pyridyl)ethoxy]-1H-indazole] | 1 to 20 | 1 to 20 | 1 to 20 | 1 to 20 | 1 to 20
C[C@@H](Oc1ccc2[nH]nc(-c3ccc(N4CC5(CCNC5)C4)nc3)c2c1)c1c(Cl)cncc1Cl [Example 164, 3-[6-(2,7-diazaspiro[3.4]octan-2-yl)-3-pyridyl]-5-[(1R)-1-(3,5-dichloro-4-pyridyl)ethoxy]-1H-indazole] | 1 to 20 | 1 to 20 | 1 to 20 | 1 to 20 | 1 to 20
C[C@@H](Oc1ccc2[nH]nc(-c3cnn(C4CCN(C5CCC5)CC4)c3)c2c1)c1cc(F)cc(F)c1 [Example 167, 3-[1-(1-cyclobutyl-4-piperidyl)pyrazol-4-yl]-5-[(1R)-1-(3,5-difluorophenyl)ethoxy]-1H-indazole] | 20 to 100 | 20 to 100 | 20 to 100 | 1 to 20 | > 300
C[C@@H](Oc1ccc2[nH]nc(-c3ccc(N4CC5(CNC5)C4)nc3)c2c1)c1cc(F)cc(F)c1 [Example 169, 3-[6-(2,6-diazaspiro[3.3]heptan-2-yl)-3-pyridyl]-5-[(1R)-1-(3,5-difluorophenyl)ethoxy]-1H-indazole] | 20 to 100 | 20 to 100 | 1 to 20 | 1 to 20 | 20 to 100
C[C@@H](Oc1ccc2[nH]nc(-c3cnn(C4CCS(=O)(=O)CC4)c3)c2c1)c1cc(F)cc(F)c1 [Example 171, 4-[4-[5-[(1R)-1-(3,5-difluorophenyl)ethoxy]-1H-indazol-3-yl]pyrazol-1-yl]thiane 1,1-dioxide] | 100 to 300 | 20 to 100 | 20 to 100 | 1 to 20 | > 300
C[C@@H](Oc1ccc2[nH]nc(-c3ccc(N4CC5(C4)CN(S(C)(=O)=O)C5)nc3)c2c1)c1cc(F)cc(F)c1 [Example 172, 5-[(1R)-1-(3,5-difluorophenyl)ethoxy]-3-[6-(2-methylsulfonyl-2,6-diazaspiro[3.3]heptan-6-yl)-3-pyridyl]-1H-indazole] | 100 to 300 | 20 to 100 | 1 to 20 | 1 to 20 | 20 to 100
Cc1cnnc(C)c1[C@@H](C)Oc1ccc2[nH]nc(-c3ccc(N4CCN5CCC[C@H]5C4)nc3)c2c1 [Example 174, 3-[6-[(8aS)-3,4,6,7,8,8a-hexahydro-1H-pyrrolo[1,2-a]pyrazin-2-yl]-3-pyridyl]-5-[(1R)-1-(3,5-dimethylpyridazin-4-yl)ethoxy]-1H-indazole] | 1 to 20 | 1 to 20 | 1 to 20 | 1 to 20 | 1 to 20
Cc1cnnc(C)c1[C@@H](C)Oc1ccc2[nH]nc(-c3ccc(N4CCN5CCC[C@@H]5C4)nc3)c2c1 [Example 175, 3-[6-[(8aR)-3,4,6,7,8,8a-hexahydro-1H-pyrrolo[1,2-a]pyrazin-2-yl]-3-pyridyl]-5-[(1R)-1-(3,5-dimethylpyridazin-4-yl)ethoxy]-1H-indazole] | 1 to 20 | 1 to 20 | 1 to 20 | 1 to 20 | 1 to 20
Cc1cnnc(C)c1[C@@H](C)Oc1ccc2[nH]nc(-c3ccc(N4CCN5C[C@H](O)C[C@H]5C4)nc3)c2c1 [Example 176, (7R,8aS)-2-[5-[5-[(1R)-1-(3,5-dimethylpyridazin-4-yl)ethoxy]-1H-indazol-3-yl]-2-pyridyl]-3,4,6,7,8,8a-hexahydro-1H-pyrrolo[1,2-a]pyrazin-7-ol] | 1 to 20 | 1 to 20 | 1 to 20 | 1 to 20 | 1 to 20
Cc1ncc(Cl)c([C@@H](C)Oc2ccc3[nH]nc(-c4ccc(N5CC6(CNC6)C5)nc4)c3c2)c1Cl [Example 177, 3-[6-(2,6-diazaspiro[3.3]heptan-2-yl)-3-pyridyl]-5-[(1R)-1-(3,5-dichloro-2-methyl-4-pyridyl)ethoxy]-1H-indazole] | 1 to 20 | 20 to 100 | 1 to 20 | 1 to 20 | 1 to 20
C[C@@H](Oc1ccc2[nH]nc(-c3ccc(N4CCN5C[C@H](O)C[C@H]5C4)nc3)c2c1)c1c(Cl)cncc1Cl [Example 178, (7R,8aS)-2-[5-[5-[(1R)-1-(3,5-dichloro-4-pyridyl)ethoxy]-1H-indazol-3-yl]-2-pyridyl]-3,4,6,7,8,8a-hexahydro-1H-pyrrolo[1,2-a]pyrazin-7-ol] | 1 to 20 | 1 to 20 | 1 to 20 | 1 to 20 | 1 to 20
Cc1ncc(Cl)c([C@@H](C)Oc2ccc3[nH]nc(-c4cnc(N5CC6(CNC6)C5)nc4)c3c2)c1Cl [Example 179, 3-[2-(2,6-diazaspiro[3.3]heptan-2-yl)pyrimidin-5-yl]-5-[(1R)-1-(3,5-dichloro-2-methyl-4-pyridyl)ethoxy]-1H-indazole] | 20 to 100 | 20 to 100 | 1 to 20 | 1 to 20 | 1 to 20
CCS(=O)(=O)N1CC2(CN(c3ccc(-c4n[nH]c5ccc(O[C@H](C)c6c(Cl)cnc(C)c6Cl)cc45)cn3)C2)C1 [Example 180, 5-[(1R)-1-(3,5-dichloro-2-methyl-4-pyridyl)ethoxy]-3-[6-(2-ethylsulfonyl-2,6-diazaspiro[3.3]heptan-6-yl)-3-pyridyl]-1H-indazole] | 20 to 100 | 20 to 100 | 1 to 20 | 1 to 20 | 20 to 100
CCS(=O)(=O)N1CC2(CN(c3ncc(-c4n[nH]c5ccc(O[C@H](C)c6c(Cl)cnc(C)c6Cl)cc45)cn3)C2)C1 [Example 181, 5-[(1R)-1-(3,5-dichloro-2-methyl-4-pyridyl)ethoxy]-3-[2-(2-ethylsulfonyl-2,6-diazaspiro[3.3]heptan-6-yl)pyrimidin-5-yl]-1H-indazole] | 100 to 300 | > 300 | 1 to 20 | 1 to 20 | 1 to 20
CCOC(=O)N1CCCC2(C1)CN(c1ccc(-c3n[nH]c4ccc(O[C@H](C)c5c(C)cnnc5C)cc34)cn1)C2 [Example 182, ethyl 2-[5-[5-[(1R)-1-(3,5-dimethylpyridazin-4-yl)ethoxy]-1H-indazol-3-yl]-2-pyridyl]-2,8-diazaspiro[3.5]nonane-8-carboxylate] | 20 to 100 | 1 to 20 | 1 to 20 | 1 to 20 | 1 to 20
C[C@@H](Oc1ccc2[nH]nc(-c3ccc(N4CCN5CCC[C@H]5C4)nc3)c2c1)c1c(Cl)cncc1Cl [Example 183, 3-[6-[(8aS)-3,4,6,7,8,8a-hexahydro-1H-pyrrolo[1,2-a]pyrazin-2-yl]-3-pyridyl]-5-[(1R)-1-(3,5-dichloro-4-pyridyl)ethoxy]-1H-indazole] | 1 to 20 | 1 to 20 | 1 to 20 | 1 to 20 | 1 to 20
C[C@@H](Oc1ccc2[nH]nc(-c3ccc(N4CCN5CCC[C@@H]5C4)nc3)c2c1)c1c(Cl)cncc1Cl [Example 184, 3-[6-[(8aR)-3,4,6,7,8,8a-hexahydro-1H-pyrrolo[1,2-a]pyrazin-2-yl]-3-pyridyl]-5-[(1R)-1-(3,5-dichloro-4-pyridyl)ethoxy]-1H-indazole] | 1 to 20 | 1 to 20 | 1 to 20 | 1 to 20 | 1 to 20
CCOC(=O)N1CC2(C1)CN(c1ncc(-c3n[nH]c4ccc(O[C@H](C)c5c(Cl)cnc(C)c5Cl)cc34)cn1)C2 [Example 185, ethyl 6-[5-[5-[(1R)-1-(3,5-dichloro-2-methyl-4-pyridyl)ethoxy]-1H-indazol-3-yl]pyrimidin-2-yl]-2,6-diazaspiro[3.3]heptane-2-carboxylate] | > 300 | 100 to 300 | 20 to 100 | 1 to 20 | 1 to 20
CCS(=O)(=O)N1CCCC2(CN(c3ccc(-c4n[nH]c5ccc(O[C@H](C)c6c(C)cnnc6C)cc45)cn3)C2)C1 [Example 186, 5-[(1R)-1-(3,5-dimethylpyridazin-4-yl)ethoxy]-3-[6-(8-ethylsulfonyl-2,8-diazaspiro[3.5]nonan-2-yl)-3-pyridyl]-1H-indazole] | 100 to 300 | 20 to 100 | 1 to 20 | 1 to 20 | 20 to 100
COC(=O)N1CCCC2(C1)CN(c1ccc(-c3n[nH]c4ccc(O[C@H](C)c5c(C)cnnc5C)cc34)cn1)C2 [Example 187, methyl 2-[5-[5-[(1R)-1-(3,5-dimethylpyridazin-4-yl)ethoxy]-1H-indazol-3-yl]-2-pyridyl]-2,8-diazaspiro[3.5]nonane-8-carboxylate] | 1 to 20 | 1 to 20 | 1 to 20 | 1 to 20 | 1 to 20
